Assay results as given in patent publication US9073820B2, “Pharmaceutical compositions comprising napthamides” (OREGON HEALTH & SCIENCE UNIVERSITY, priority 2011, dated 2015).
Like-named read-outs stand apart in the source and are kept apart here.

What was measured:
[1] = Maximum tolerated dose of Compound 4 (body weight); type: in vivo
Procedure: The maximum tolerated dose (MTD) of compound 4 was evaluated in nude mice. In this study 4 groups were established, each with five mice per group. The compound was formulated in a suspension of 5% Tween-80/H2O. Compound 4 was administered orally at dose levels of 120, 60, and 30 mg/kg as QD for five days. The body weight was measured daily for a total of 11 days.

[2] = tested on: MDA-MB-231 (human breast cancer cells); assay: MTT cell growth inhibition, 72 h, MDA-MB-231; type: cell-based; conditions: MDA-MB-231, 72 h, read-out: MDA-MB-231 (GI50)
Procedure: (§1) A549 (human lung cancer cells), MCF-7 (human breast cancer cells), MDA-MB-231 (human breast cancer cells) and MDA-MB-468 cells (human breast cancer cells) were maintained in Dulbecco's modified Eagle medium (DMEM, Invitrogen, Carlsbad, Calif.) supplemented with 10% (v/v) fetal calf serum (Sigma, St. Louis, Mo.), 10 μg/mL penicillin and 10 μg/mL streptomycin (Invitrogen, Carlsbad, Calif.) at 37° C. under 5% CO2. On the day of experiment, different concentrations of the drugs (final concentration 10^−8-10^−4 M) in duplicates were added to the cells and the cells were further incubated for 72 h. Then, the number of live cells was quantified by 3-(4,5-dimethyl-2-thiazolyl)-2,5-diphenyl-2H-tetrazolium bromide (MTT reagent, Sigma, St. Louis, Mo.).
(§2) The amount of reduced MTT formazan generated by live cells was determined by its absorbance at 570 nm after subtracting the background absorbance at 690 nm. The percent of cell growth was expressed as (A570(treated)−A570(initial))/(A570(vehicle treated)−A570(initial))*100, where A570(initial) represents initial cell population when drugs are added. The GI50 were derived from non-linear regression analysis of the dose-response curve using Prism 4.0 (GraphPad). […] Data were presented as mean±SD of at least two measurements in duplicates unless noted.

[3] = tested on: MCF-7 (human breast cancer cells); assay: MTT cell growth inhibition, 72 h, MCF-7; type: cell-based; conditions: MCF7, 72 h, read-out: MCF-7 (GI50)
Procedure: as §1, §2

[4] = Pharmacokinetics of Compound 4 in mice (IV and PO); type: in vivo, BALB/c nude female mice
Procedure: The pharmacokinetics of Compound 4 was assessed in BALB/c nude female mice. Doses were 2 mg/kg administered intravenously (IV) and 20 mg/kg administered orally (PO). The intravenous formulation was administered in 1% N-Methyl-2-pyrrolidone (NMP) in water and was a clear solution. The per os solution was in 1.3% NMP+5% Tween-20® in a clear solution.

[5] = tested on: MDA-MB-468 cells (human breast cancer cells); assay: MTT cell growth inhibition, 72 h, MDA-MB-468; type: cell-based; conditions: MDA-MB-468, 72 h, read-out: MDA-MB-468 (GI50)
Procedure: as §1, §2

KIX-KID = target: T1, KIX-KID (Homo sapiens, UniProt Q92793); assay: KIX-KID inhibition, split Renilla luciferase complementation (RLucC-KIX and KID-RLucN); type: binding; conditions: 4° C., 24 h
T1 construct: made in house
Procedure: RLucC-KIX (15 ng) and KID-RLucN-containing cell lysates (0.5 mg) were mixed together in Renilla luciferase lysis buffer (Promega, Madison, Wis.) in the presence of different concentrations of compounds. The final volume of the incubation mixture is 30 μL. The mixture was incubated at 4° C. for 24 h. Then Renilla luciferase activity was measured by combining 5 μL of incubation mixture with 30 μL of coelenterazine solution in PBS (pH 7.4, 10 μg/mL).

[6] = tested on: A549 (human lung cancer cells); assay: MTT cell growth inhibition, 72 h, A549; type: cell-based; conditions: A549, 72 h, read-out: A549 (GI50)
Procedure: as §1, §2

[7] = female, BALB/c nude, mouse, plasma, intravenous, 2 mg/kg, 2 mg/kg IV, G1, read-out: Plasma concentration G1
[8] = female, BALB/c nude, mouse, plasma, intravenous, 2 mg/kg, 2 mg/kg IV, G2, read-out: Plasma concentration G2
[9] = female, BALB/c nude, mouse, plasma, intravenous, 2 mg/kg, 2 mg/kg IV, G3, read-out: Plasma concentration G3
[10] = female, BALB/c nude, mouse, plasma, intravenous, 2 mg/kg, 2 mg/kg IV, mean, read-out: Plasma concentration Mean IV
[11] = female, BALB/c nude, mouse, plasma, oral, 20 mg/kg, 20 mg/kg PO, G4, read-out: Plasma concentration G4
[12] = female, BALB/c nude, mouse, plasma, oral, 20 mg/kg, 20 mg/kg PO, G5, read-out: Plasma concentration G5
[13] = female, BALB/c nude, mouse, plasma, oral, 20 mg/kg, 20 mg/kg PO, G6, read-out: Plasma concentration G6
[14] = female, BALB/c nude, mouse, plasma, oral, 20 mg/kg, 20 mg/kg PO, mean, read-out: Plasma concentration Mean PO
[15] = female, BALB/c nude, mouse, plasma, 2 mg/kg IV
[16] = female, BALB/c nude, mouse, plasma, 20 mg/kg PO

T1 sequence (Q92793 587-666 limits assumed): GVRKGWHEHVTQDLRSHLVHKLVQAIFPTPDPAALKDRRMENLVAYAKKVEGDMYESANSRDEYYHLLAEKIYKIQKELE

NCCCOc1cc2ccccc2cc1C(=O)NCCCOc1cc2ccccc2cc1C(=O)Nc1ccc(Cl)cc1O [Compound 4]
effect on mouse body weight ([1]; PO 120, 60, 30 mg/kg QD for five days, body weight 11 days): no different from vehicle
tolerability ([1]; doses as high as 120 mg/kg per os, QD for five days): well-tolerated
GI50 [2]: 230 ± 6 nM
GI50 [3]: 140 ± 29 nM
CI ([4]; 2 mg/kg IV): 12.7 mL/min/kg
concentration at 0.083 hr [4, 7]: 1610 ng/mL
concentration at 0.083 hr [4, 8]: 1980 ng/mL
concentration at 0.083 hr [4, 9]: 1540 ng/mL
concentration at 0.083 hr [4, 10]: 1710 ng/mL
concentration at 0.25 hr [4, 7]: 1140 ng/mL
concentration at 0.25 hr [4, 8]: 1900 ng/mL
concentration at 0.25 hr [4, 9]: 1610 ng/mL
concentration at 0.25 hr [4, 10]: 1550 ng/mL
concentration at 0.5 hr [4, 7]: 1130 ng/mL
concentration at 0.5 hr [4, 8]: 966 ng/mL
concentration at 0.5 hr [4, 9]: 1170 ng/mL
concentration at 0.5 hr [4, 10]: 1090 ng/mL
concentration at 1 hr [4, 7]: 528 ng/mL
concentration at 1 hr [4, 8]: 378 ng/mL
concentration at 1 hr [4, 9]: 419 ng/mL
concentration at 1 hr [4, 10]: 442 ng/mL
concentration at 2 hr [4, 7]: 275 ng/mL
concentration at 2 hr [4, 8]: 178 ng/mL
concentration at 2 hr [4, 9]: 105 ng/mL
concentration at 2 hr [4, 10]: 186 ng/mL
concentration at 4 hr [4, 7]: 59.9 ng/mL
concentration at 4 hr [4, 8]: 71 ng/mL
concentration at 4 hr [4, 9]: 58.1 ng/mL
concentration at 4 hr [4, 10]: 63 ng/mL
concentration at 8 hr [4, 7]: 30.2 ng/mL
concentration at 8 hr [4, 8]: 58.7 ng/mL
concentration at 8 hr [4, 9]: 56.6 ng/mL
concentration at 8 hr [4, 10]: 48.5 ng/mL
concentration at 24 hr [4, 7]: 15.3 ng/mL
concentration at 24 hr [4, 8]: 16.4 ng/mL
concentration at 24 hr [4, 9]: 13.3 ng/mL
concentration at 24 hr [4, 10]: 15 ng/mL
concentration at 0.25 hr [4, 11]: 75.5 ng/mL
concentration at 0.25 hr [4, 12]: 92.7 ng/mL
concentration at 0.25 hr [4, 13]: 101 ng/mL
concentration at 0.25 hr [4, 14]: 89.7 ng/mL
concentration at 0.5 hr [4, 11]: 92 ng/mL
concentration at 0.5 hr [4, 12]: 82.4 ng/mL
concentration at 0.5 hr [4, 13]: 166 ng/mL
concentration at 0.5 hr [4, 14]: 114 ng/mL
concentration at 1 hr [4, 11]: 402 ng/mL
concentration at 1 hr [4, 12]: 465 ng/mL
concentration at 1 hr [4, 13]: 139 ng/mL
concentration at 1 hr [4, 14]: 335 ng/mL
concentration at 2 hr [4, 11]: 353 ng/mL
concentration at 2 hr [4, 12]: 75 ng/mL
concentration at 2 hr [4, 13]: 269 ng/mL
concentration at 2 hr [4, 14]: 232 ng/mL
concentration at 4 hr [4, 11]: 128 ng/mL
concentration at 4 hr [4, 12]: 65.9 ng/mL
concentration at 4 hr [4, 13]: 118 ng/mL
concentration at 4 hr [4, 14]: 104 ng/mL
concentration at 8 hr [4, 11]: 45.8 ng/mL
concentration at 8 hr [4, 12]: 30.1 ng/mL
concentration at 8 hr [4, 13]: 41.7 ng/mL
concentration at 8 hr [4, 14]: 39.2 ng/mL
concentration at 12 hr [4, 11]: 46 ng/mL
concentration at 12 hr [4, 12]: 47.6 ng/mL
concentration at 12 hr [4, 13]: 48.2 ng/mL
concentration at 12 hr [4, 14]: 47.3 ng/mL
concentration at 24 hr [4, 11]: 7.2 ng/mL
concentration at 24 hr [4, 12]: 12.9 ng/mL
concentration at 24 hr [4, 13]: 34.1 ng/mL
concentration at 24 hr [4, 14]: 18.1 ng/mL
AUC(0-inf) [4, 15]: 2630 ng·h/mL
AUC(0-t) [4, 15]: 2420 ng·h/mL
half-life [4, 15]: 9.6 h
Vd ([4]; female, BALB/c nude, mouse, plasma, 2 mg/kg IV, read-out: Vss): 4.8 L/kg
AUC(0-inf) [4, 16]: 1860 ng·h/mL
AUC(0-t) [4, 16]: 1620 ng·h/mL
Cmax [4, 16]: 335 ng/mL
Tmax [4, 16]: 1 h
half-life [4, 16]: 9.1 h
bioavailability ([4]; female, BALB/c nude, mouse, plasma, 20 mg/kg PO vs 2 mg/kg IV): 7.1%
GI50 [5]: 210 ± 71 nM
IC50 (KIX-KID): 2540 ± 280 nM
GI50 [6]: 300 nM
